Assay results taken from PubChem BioAssay AID1963847 (Molecular Pharmacology Branch, DTP, NCI, 2024).
pIC50: −log10 of the molar value.

Test system: 415267-285-R-J2-PDC complex spheroid viability
Experiment: Anticancer human tumor 415267-285-R-J2-PDC patient-derived breast carcinoma cell line growth inhibition [POLQ]
Conditions: for pIC50: curve of first compound; for viability, T/C: stronger effect = lower value
Procedure: Multicellular complex tumor spheroid response to Polymerase (POL) inhibitors (novobiocin, ART-558, RP6685) in combination with a variety of drugs and investigational agents in selected tumor cell lines
The POL inhibitors (novobiocin, ART-558, and RP6685) were evaluated both individually and in combination with standard of care and investigational anticancer small molecules within a complex spheroid model of solid tumors. . Complex spheroids include a stromal component modeled by human endothelial cells (HUVEC) and fibroblasts modeled by human mesenchymal stem cells (MSCs). The concentration ranges selected for each drug and investigational agent were based upon clinically achievable concentrations if the clinical Cmax of the agent was known.
Compounds. The drugs and investigational agents: novobiocin (NSC847541), ART-558 (NSC835418), RP-6685 (NSC848927), peposertib (NSC802822), ceralasertib (NSC780249), elimusertib (NSC800525), camonsertib (NSC841442), AZD-1390 (NSC803789), olaparib (NSC753686), talazoparib (NSC767125), rucaparib (NSC756644), sotorasib (NSC818433), MRTX-1133 (NSC836407), SN-38 (NSC673596), topotecan (NSC609699), epotoside (NSC141540), doxorubicin (NSC123127), gemcitabine (NSC613327), 5-fluorouracil (NSC19893), paclitaxel (NSC125973), vemurafenib (NSC761431), MSA-2 (NSC828583), SN-011 (NSC837082), adavosertib (NSC754352), prexasertib (NSC758257), carboplatin (NSC241240) and oxaliplatin (NSC266046), were obtained from the National Cancer Institute (NCI) Developmental Therapeutics Program Chemical Repository (21). The FDA-approved anticancer drug set is available from the Developmental Therapeutics Program at https://dtp.cancer.gov/organization/dscb/obtaining/. […] The stock solutions were prepared in dimethyl sulfoxide (DMSO, Sigma-Aldrich, St. Louis, MO, cat. D2650), except for the platinum compounds which were prepared in saline (Quality Biological, Gaithersburg, MD, cat. 114-055-101), at 800-fold the tested concentration and stored at -70 degrees C prior to their use. All drugs and investigational agents were tested over a range starting from a high concentration at or near the clinical Cmax and decreasing in half-log increments. If the clinical Cmax for an agent had not been determined, the highest concentration tested was 10 microM, except for SN-38, which was tested at a high concentration of 1 microM.
Cell Culture. All cells were maintained in an incubator at 37 degrees C and 5% CO2 with 95% humidity. The PDC lines were cultured according to standard operating procedures established by the NCI PDMR (https://pdmr.cancer.gov). Table 3 of the manuscript, lists the cell lines along with the number of the three cell types plated to form the mct-spheroids and media for tumor cell growth. After thawing, all PDC lines, except 997537-175-T-J1-PDC and 415267-285-R-J2-PDC, were cultured in Matrigel-coated flasks prepared with a working solution of 1X Ham's F-12 nutrient mix, without supplementation (Thermo Fisher Scientific, cat. 11765054), 100 U/mL penicillin-streptomycin (Thermo Fisher Scientific, cat. 15140122), and 2.5% Matrigel (Corning Inc., Corning, NY, cat. 354248) for the first three passages. The two PDC lines 997537-175-T-J1-PDC and 415267-285-R-J2-PDC were cultured on uncoated flasks. The 857933-349-R-J2-PDC line was cultured in 6C/Colon 1B media containing advanced DMEM/F-12 (Thermo Fisher Scientific, cat. 12634028), 10 mM HEPES (Thermo Fisher Scientific, cat. 15630080), 1X GlutaMAX supplement (Thermo Fisher Scientific, cat. 35050061), 0.1 mg/mL primocin (InvivoGen, San Diego, CA, cat. ant-pm-2), 10% defined fetal bovine serum, heat inactivated (HyClone Laboratories Inc., Logan, UT, cat. SH30070.03HI), 50% L-WRN conditioned media (ATCC, cat. CRL-3276), 1.25 mM N-Acetyl-L-cysteine (Sigma-Aldrich, cat. A9165), 10 mM nicotinamide (Sigma-Aldrich, cat. N0636), 1X B-27 supplement (Thermo Fisher Scientific, cat. 17504044), 1X N-2 supplement (Thermo Fisher Scientific, cat. […]
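Also: spheroids exposed to compounds for one week before readout.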
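For viability, T/C in this document: luminescence used as stand-in measure of viable cells; 100% = DMSO vehicle control viability.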

For `CC(=O)O[C@H]1C(=O)[C@@]2(C)[C@H]([C@H](OC(=O)c3ccccc3)[C@]3(O)C[C@H](OC(=O)[C@H](O)[C@@H](NC(=O)c4ccccc4)c4ccccc4)C(C)=C1C3(C)C)[C@]1(OC(C)=O)CO[C@@H]1C[C@@H]2O` + COC1C(OC(N)=O)C(O)C(Oc2ccc3c(O)c(NC(=O)c4ccc(O)c(CC=C(C)C)c4)c(=O)oc3c2C)OC1(C)C, the pIC50 (second compound 0.0316 µM) was greater than 8.02, the pIC50 (second compound 0.1 µM) was greater than 8.02 and the pIC50 (second compound 0.316 µM) was greater than 8.02. It also gave a pIC50 (second compound 1 µM) greater than 8.02, a pIC50 (second compound 3.16 µM) greater than 8.02 and a pIC50 (second compound 10 µM) greater than 8.02. It also gave a viability, T/C (second compound 0.0316 µM, first compound 0.00949 µM) of 13.6%, a viability, T/C (second compound 0.0316 µM, first compound 0.03 µM) of 9.68% and a viability, T/C (second compound 0.0316 µM, first compound 0.0949 µM) of 8.14%. It also gave a viability, T/C (second compound 0.0316 µM, first compound 0.3 µM) of 6.55%, a viability, T/C (second compound 0.0316 µM, first compound 0.949 µM) of 8.38% and a viability, T/C (second compound 0.0316 µM, first compound 3 µM) of 8.03%. It also gave a viability, T/C (second compound 0.1 µM, first compound 0.00949 µM) of 11%, a viability, T/C (second compound 0.1 µM, first compound 0.03 µM) of 8.15% and a viability, T/C (second compound 0.1 µM, first compound 0.0949 µM) of 7.43%. It also gave a viability, T/C (second compound 0.1 µM, first compound 0.3 µM) of 7.95%, a viability, T/C (second compound 0.1 µM, first compound 0.949 µM) of 8.29% and a viability, T/C (second compound 0.1 µM, first compound 3 µM) of 9.45%. For the same compound, the viability, T/C (second compound 0.316 µM, first compound 0.00949 µM) was 13.1%, the viability, T/C (second compound 0.316 µM, first compound 0.03 µM) was 9.7% and the viability, T/C (second compound 0.316 µM, first compound 0.0949 µM) was 7.34%. For the same compound, the viability, T/C (second compound 0.316 µM, first compound 0.3 µM) was 8.56%, the viability, T/C (second compound 0.316 µM, first compound 0.949 µM) was 8.09% and the viability, T/C (second compound 0.316 µM, first compound 3 µM) was 7.17%. For the same compound, the viability, T/C (second compound 1 µM, first compound 0.00949 µM) was 12.9%, the viability, T/C (second compound 1 µM, first compound 0.03 µM) was 8.82% and the viability, T/C (second compound 1 µM, first compound 0.0949 µM) was 8.23%. It also gave a viability, T/C (second compound 1 µM, first compound 0.3 µM) of 8.01%, a viability, T/C (second compound 1 µM, first compound 0.949 µM) of 8.58% and a viability, T/C (second compound 1 µM, first compound 3 µM) of 7.75%. For the same compound, the viability, T/C (second compound 3.16 µM, first compound 0.00949 µM) was 13%, the viability, T/C (second compound 3.16 µM, first compound 0.03 µM) was 10.4% and the viability, T/C (second compound 3.16 µM, first compound 0.0949 µM) was 8%. It also gave a viability, T/C (second compound 3.16 µM, first compound 0.3 µM) of 7.65%, a viability, T/C (second compound 3.16 µM, first compound 0.949 µM) of 8.33% and a viability, T/C (second compound 3.16 µM, first compound 3 µM) of 8.3%. It also gave a viability, T/C (second compound 10 µM, first compound 0.00949 µM) of 24.1%, a viability, T/C (second compound 10 µM, first compound 0.03 µM) of 9.1% and a viability, T/C (second compound 10 µM, first compound 0.0949 µM) of 7.75%. For the same compound, the viability, T/C (second compound 10 µM, first compound 0.3 µM) was 8.73%, the viability, T/C (second compound 10 µM, first compound 0.949 µM) was 6.75% and the viability, T/C (second compound 10 µM, first compound 3 µM) was 9.23%.
`COc1cccc2c1C(=O)c1c(O)c3c(c(O)c1C2=O)CC(O)(C(=O)CO)CC3OC1CC(N)C(O)C(C)O1` (centres undefined) + COC1C(OC(N)=O)C(O)C(Oc2ccc3c(O)c(NC(=O)c4ccc(O)c(CC=C(C)C)c4)c(=O)oc3c2C)OC1(C)C gave a pIC50 (second compound 0.0316 µM) of 7.35, a pIC50 (second compound 0.1 µM) of 7.43 and a pIC50 (second compound 0.316 µM) of 7.45. For the same compound, the pIC50 (second compound 1 µM) was greater than 7.50, the pIC50 (second compound 3.16 µM) was 7.41 and the pIC50 (second compound 10 µM) was 7.36. For the same compound, the viability, T/C (second compound 0.0316 µM, first compound 0.0316 µM) was 66.1%, the viability, T/C (second compound 0.0316 µM, first compound 0.1 µM) was 12.3% and the viability, T/C (second compound 0.0316 µM, first compound 0.316 µM) was 5.33%. The viability, T/C (second compound 0.0316 µM, first compound 1 µM) was 1.27%, the viability, T/C (second compound 0.0316 µM, first compound 3.16 µM) was 0.99% and the viability, T/C (second compound 0.0316 µM, first compound 10 µM) was 3%. For the same compound, the viability, T/C (second compound 0.1 µM, first compound 0.0316 µM) was 55.7%, the viability, T/C (second compound 0.1 µM, first compound 0.1 µM) was 17.9% and the viability, T/C (second compound 0.1 µM, first compound 0.316 µM) was 5.82%. For the same compound, the viability, T/C (second compound 0.1 µM, first compound 1 µM) was 0.96%, the viability, T/C (second compound 0.1 µM, first compound 3.16 µM) was 1.01% and the viability, T/C (second compound 0.1 µM, first compound 10 µM) was 2.7%. It also gave a viability, T/C (second compound 0.316 µM, first compound 0.0316 µM) of 54.2%, a viability, T/C (second compound 0.316 µM, first compound 0.1 µM) of 12% and a viability, T/C (second compound 0.316 µM, first compound 0.316 µM) of 4.95%. For the same compound, the viability, T/C (second compound 0.316 µM, first compound 1 µM) was 0.99%, the viability, T/C (second compound 0.316 µM, first compound 3.16 µM) was 0.89% and the viability, T/C (second compound 0.316 µM, first compound 10 µM) was 2.53%. The viability, T/C (second compound 1 µM, first compound 0.0316 µM) was 48.8%, the viability, T/C (second compound 1 µM, first compound 0.1 µM) was 11.6% and the viability, T/C (second compound 1 µM, first compound 0.316 µM) was 5.43%. It also gave a viability, T/C (second compound 1 µM, first compound 1 µM) of 1.06%, a viability, T/C (second compound 1 µM, first compound 3.16 µM) of 1.03% and a viability, T/C (second compound 1 µM, first compound 10 µM) of 2.68%. For the same compound, the viability, T/C (second compound 3.16 µM, first compound 0.0316 µM) was 58.4%, the viability, T/C (second compound 3.16 µM, first compound 0.1 µM) was 12.5% and the viability, T/C (second compound 3.16 µM, first compound 0.316 µM) was 4.68%. The viability, T/C (second compound 3.16 µM, first compound 1 µM) was 1.06%, the viability, T/C (second compound 3.16 µM, first compound 3.16 µM) was 1.25% and the viability, T/C (second compound 3.16 µM, first compound 10 µM) was 2.55%. For the same compound, the viability, T/C (second compound 10 µM, first compound 0.0316 µM) was 63.9%, the viability, T/C (second compound 10 µM, first compound 0.1 µM) was 16% and the viability, T/C (second compound 10 µM, first compound 0.316 µM) was 5.78%. The viability, T/C (second compound 10 µM, first compound 1 µM) was 1.44%, the viability, T/C (second compound 10 µM, first compound 3.16 µM) was 1.38% and the viability, T/C (second compound 10 µM, first compound 10 µM) was 3.32%.
